Measured values from patent US20250230193A1, “CYCLIC COMPOUND HAVING SELECTIVE KRAS INHIBITORY EFFECT ON HRAS AND NRAS” (CHUGAI SEIYAKU KABUSHIKI KAISHA, priority 2022, published 2025).
*1 amine or outer side, *2 acyl side, *3 side chain or, on linkers, in order; H or OH if unused. Where a SMILES comes first, the peptide text is derived from it. Bridges are numbered along the chain shown (N, C = ends). [ ]: non-standard residue; d: D form. The star is where a group is joined. hPhe(3-Cl-4-CF3) = N[C@@H](CCc1ccc(C(F)(F)F)c(Cl)c1)C(=O)O; NPrPhe(4-CF3) = CCCN[C@@H](Cc1ccc(C(F)(F)F)cc1)C(=O)O; X22 = CCCN([C@@H](COC1CCC1)C(=O)[*:2])[*:1]; X4 = CCCN([C@@H](COCCC(C)C)C(=O)[*:2])[*:1]; X33 = CCCN([C@@H](CC(C)C)C(=O)[*:2])[*:1]; NMeGly(cPent) = CN[C@H](C(=O)O)C1CCCC1; NMeD = CN[C@@H](CC(=O)O)C(=O)O; NMeL = CN[C@@H](CC(C)C)C(=O)O; Morpholide = C1CN(*)CCO1; NMeA = CN[C@@H](C)C(=O)O; Aze = O=C(O)[C@@H]1CCN1; Ac4c = NC1(C(=O)O)CCC1; Sar = CNCC(=O)O

Assays:
[1] = target: GDP-bound NRAS wild-type protein (Homo sapiens, UniProt P01111); assay: Binding to NRAS by surface plasmon resonance (SPR), Single Cycle Kinetics; settings: KD ratio, GDP-bound NRAS wild-type vs GDP-bound KRAS wild-type, SPR
Chain of GDP-bound NRAS wild-type protein (P01111 whole entry): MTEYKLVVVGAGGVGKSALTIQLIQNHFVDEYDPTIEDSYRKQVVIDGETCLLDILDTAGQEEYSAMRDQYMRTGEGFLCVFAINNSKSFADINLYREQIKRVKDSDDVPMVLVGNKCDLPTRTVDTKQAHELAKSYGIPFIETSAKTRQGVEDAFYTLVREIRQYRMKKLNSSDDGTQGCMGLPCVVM

[2] = target: GDP-bound HRAS wild-type protein (Homo sapiens, UniProt P01112); assay: Binding to HRAS by surface plasmon resonance (SPR), Single Cycle Kinetics; settings: KD ratio, GDP-bound HRAS wild-type vs GDP-bound KRAS wild-type, SPR
Chain of GDP-bound HRAS wild-type protein (P01112 whole entry): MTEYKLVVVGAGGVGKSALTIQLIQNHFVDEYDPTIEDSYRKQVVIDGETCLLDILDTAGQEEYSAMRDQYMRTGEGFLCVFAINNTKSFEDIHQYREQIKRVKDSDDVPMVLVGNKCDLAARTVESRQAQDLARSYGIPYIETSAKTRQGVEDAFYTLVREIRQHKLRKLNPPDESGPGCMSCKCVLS

Structure (SMILES)	NRAS/KRAS (ratio of KD value for NRAS to KD value for KRAS) [1]	HRAS/KRAS (ratio of KD value for HRAS to KD value for KRAS) [2]
CCO[C@@H]1C[C@H]2C(=O)N(C)C3(CCCC3)C(=O)N(C)[C@@H](C3CCCC3)C(=O)N(C)[C@H](C(=O)N(C)C)CC(=O)N(C)[C@@H](CC)C(=O)N[C@@H]([C@@H](C)CC)C(=O)N(C)CC(=O)N(C)[C@H]3C/C=C\CCN(C3=O)[C@@H](Cc3ccc(C)cc3)C(=O)N(C)CC(=O)N[C@@H](CCc3cc(F)c(C(F)(F)F)c(F)c3)C(=O)N2C1 [PP1806]	A (a compound having 10 or more and less than 20 is denoted as A)	B (a compound having 3 or more and less than 10 is denoted as B)
CC[C@H](C)[C@@H]1NC(=O)[C@H](CC)N(C)C(=O)C[C@@H](C(=O)N(C)C)N(C)C(=O)[C@H](C2CCCC2)N(C)C(=O)C2(CCCC2)N(C)C(=O)[C@@H]2CCCN2C(=O)[C@H](CCc2cc(F)c(C(F)(F)F)c(F)c2)NC(=O)CN(C)C(=O)[C@H](Cc2ccc(C)cc2)N2CC/C=C\C[C@@H](C2=O)N(C)C(=O)CN(C)C1=O [PP1807]	A (a compound having 10 or more and less than 20 is denoted as A)	B (a compound having 3 or more and less than 10 is denoted as B)
CCO[C@@H]1C[C@H]2C(=O)N(C)C3(CCCC3)C(=O)N(C)[C@@H](C3CCCC3)C(=O)N(C)[C@H](C(=O)N(C)C)CC(=O)N(C)[C@@H](C3CC3)C(=O)N[C@@H]([C@@H](C)CC)C(=O)N(C)CC(=O)N(C)[C@H]3C/C=C\CCN(C3=O)[C@@H](Cc3ccc(C)cc3)C(=O)N(C)CC(=O)N[C@@H](CCc3cc(F)c(C(F)(F)F)c(F)c3)C(=O)N2C1 [PP1808]	A (a compound having 10 or more and less than 20 is denoted as A)	B (a compound having 3 or more and less than 10 is denoted as B)
CCO[C@@H]1C[C@H]2C(=O)N(C)C3(CCCC3)C(=O)N(C)[C@@H](C3CCCC3)C(=O)N(C)[C@H](C(=O)N(C)C)CC(=O)N(C)[C@@H](CC)C(=O)N[C@@H]([C@@H](C)CC)C(=O)N3CCC[C@H]3C(=O)N(C)[C@H]3C/C=C\CCN(C3=O)[C@@H](Cc3ccc(C)cc3)C(=O)N(C)CC(=O)N[C@@H](CCc3cc(F)c(C(F)(F)F)c(F)c3)C(=O)N2C1 [PP1810]	A (a compound having 10 or more and less than 20 is denoted as A)	B (a compound having 3 or more and less than 10 is denoted as B)
CC[C@H](C)[C@@H]1NC(=O)[C@H](CC)N(C)C(=O)C[C@@H](C(=O)N(C)C)N(C)C(=O)[C@H](C2CCCC2)N(C)C(=O)C2(CCCC2)N(C)C(=O)[C@@H]2CCCN2C(=O)[C@H](CCc2cc(F)c(C(F)(F)F)c(F)c2)NC(=O)CN(C)C(=O)[C@H](Cc2ccc(C)cc2)N2CC/C=C\C[C@@H](C2=O)N(C)C(=O)[C@@H]2CCCN2C1=O [PP1811]	A (a compound having 10 or more and less than 20 is denoted as A)	B (a compound having 3 or more and less than 10 is denoted as B)
CC[C@H](C)[C@@H]1NC(=O)[C@H](CC)N(C)C(=O)C[C@@H](C(=O)N(C)C)N(C)C(=O)[C@H](C2CCCC2)N(C)C(=O)C2(CCCC2)N(C)C(=O)[C@@H]2C[C@@H](C)CN2C(=O)[C@H](CCc2cc(F)c(C(F)(F)F)c(F)c2)NC(=O)CN(C)C(=O)[C@H](Cc2ccc(C)cc2)N2CC/C=C\C[C@@H](C2=O)N(C)C(=O)CN(C)C1=O [PP1812]	A (a compound having 10 or more and less than 20 is denoted as A)	A (a compound having 10 or more and less than 20 is denoted as A)
CC[C@H](C)[C@@H]1NC(=O)[C@H](C2CC2)N(C)C(=O)C[C@@H](C(=O)N(C)C)N(C)C(=O)[C@H](C2CCCC2)N(C)C(=O)C2(CCCC2)N(C)C(=O)[C@@H]2C[C@@H](C)CN2C(=O)[C@H](CCc2cc(F)c(C(F)(F)F)c(F)c2)NC(=O)CN(C)C(=O)[C@H](Cc2ccc(C)cc2)N2CC/C=C\C[C@@H](C2=O)N(C)C(=O)CN(C)C1=O [PP1813]	A (a compound having 10 or more and less than 20 is denoted as A)	B (a compound having 3 or more and less than 10 is denoted as B)
CC[C@H](C)[C@@H]1NC(=O)[C@H](CC)N(C)C(=O)C[C@@H](C(=O)N(C)C)N(C)C(=O)[C@H](C2CCCC2)N(C)C(=O)C2(CCCC2)N(C)C(=O)[C@@H]2C[C@@H](C)CN2C(=O)[C@H](CCc2cc(F)c(C(F)(F)F)c(F)c2)NC(=O)CN(C)C(=O)[C@H](Cc2ccc(C)cc2)N2CC/C=C\C[C@@H](C2=O)N(C)C(=O)[C@@H]2CCCN2C1=O [PP1814]	A (a compound having 10 or more and less than 20 is denoted as A)	A (a compound having 10 or more and less than 20 is denoted as A)
CCCN1C(=O)C[C@@H](C(=O)N2CCOCC2)N(C)C(=O)[C@H](C2CCCC2)N(C)C(=O)C2(CCC2)NC(=O)[C@@H]2CCCN2C(=O)[C@H](CCc2ccc(C(F)(F)F)c(Cl)c2)NC(=O)CN(C)C(=O)[C@H](Cc2ccc(C(F)(F)F)cc2)N(CCC)C(=O)CN(C)C(=O)CN(C)C(=O)[C@H](C(C)C)NC(=O)[C@@H]1CC(C)C [PP1815] ([X33]V[Sar][Sar][NPrPhe(4-CF3)][Sar][hPhe(3-Cl-4-CF3)]P[Ac4c][NMeGly(cPent)][NMeD]-Morpholide; lactam N-11)	B (a compound having 3 or more and less than 10 is denoted as B)	B (a compound having 3 or more and less than 10 is denoted as B)
CCCN1C(=O)CN(C)C(=O)CN(C)C(=O)[C@H]([C@@H](C)CC)NC(=O)[C@H](CC(C)C)N(C)C(=O)C[C@@H](C(=O)N2CCOCC2)N(C)C(=O)[C@H](C2CCCC2)N(C)C(=O)C2(CCC2)NC(=O)[C@@H]2CCCN2C(=O)[C@H](CCc2ccc(C(F)(F)F)c(Cl)c2)NC(=O)CN(C)C(=O)[C@@H]1COC1CCC1 [PP1816] ([NMeL]I[Sar][Sar][X22][Sar][hPhe(3-Cl-4-CF3)]P[Ac4c][NMeGly(cPent)][NMeD]-Morpholide; lactam N-11)	B (a compound having 3 or more and less than 10 is denoted as B)	C (A compound having a KD ratio of 0.1 or more and less than 3 is denoted as C)
CCCN1C(=O)CN(C)C(=O)CN(C)C(=O)[C@H]([C@@H](C)CC)NC(=O)[C@H](CC(C)C)N(C)C(=O)C[C@@H](C(=O)N2CCOCC2)N(C)C(=O)[C@H](C2CCCC2)N(C)C(=O)C2(CCC2)NC(=O)[C@@H]2CCCN2C(=O)[C@H](CCc2ccc(C(F)(F)F)c(Cl)c2)NC(=O)CN(C)C(=O)[C@@H]1COCCC(C)C [PP1817] ([NMeL]I[Sar][Sar][X4][Sar][hPhe(3-Cl-4-CF3)]P[Ac4c][NMeGly(cPent)][NMeD]-Morpholide; lactam N-11)	C (A compound having a KD ratio of 0.1 or more and less than 3 is denoted as C)	C (A compound having a KD ratio of 0.1 or more and less than 3 is denoted as C)
CCCN1C(=O)[C@@H]2CCN2C(=O)[C@H](C)N(C)C(=O)[C@H]([C@@H](C)CC)NC(=O)[C@H](CC(C)C)N(C)C(=O)C[C@@H](C(=O)N2CCOCC2)N(C)C(=O)[C@H](C2CCCC2)N(C)C(=O)C2(CCC2)NC(=O)[C@@H]2CCCN2C(=O)[C@H](CCc2ccc(C(F)(F)F)c(Cl)c2)NC(=O)CN(C)C(=O)[C@@H]1COC1CCC1 [PP1818] ([NMeL]I[NMeA][Aze][X22][Sar][hPhe(3-Cl-4-CF3)]P[Ac4c][NMeGly(cPent)][NMeD]-Morpholide; lactam N-11)	C (A compound having a KD ratio of 0.1 or more and less than 3 is denoted as C)	B (a compound having 3 or more and less than 10 is denoted as B)
CCCN1C(=O)[C@@H]2CCN2C(=O)[C@H](C)N(C)C(=O)[C@H]([C@@H](C)CC)NC(=O)[C@H](CC(C)C)N(C)C(=O)C[C@@H](C(=O)N2CCOCC2)N(C)C(=O)[C@H](C2CCCC2)N(C)C(=O)C2(CCC2)NC(=O)[C@@H]2CCCN2C(=O)[C@H](CCc2ccc(C(F)(F)F)c(Cl)c2)NC(=O)CN(C)C(=O)[C@@H]1COCCC(C)C [PP1819] ([NMeL]I[NMeA][Aze][X4][Sar][hPhe(3-Cl-4-CF3)]P[Ac4c][NMeGly(cPent)][NMeD]-Morpholide; lactam N-11)	C (A compound having a KD ratio of 0.1 or more and less than 3 is denoted as C)	C (A compound having a KD ratio of 0.1 or more and less than 3 is denoted as C)
CCO[C@@H]1C[C@H]2C(=O)NC3(CCC3)C(=O)N(C)[C@@H](C3CCCC3)C(=O)N(C)[C@H](C(=O)N(C)C)CC(=O)N(C)[C@@H](CC)C(=O)N[C@@H]([C@@H](C)CC)C(=O)N(C)CC(=O)N(C)[C@H]3C/C=C\CCN(C3=O)[C@@H](Cc3ccc(C(F)(F)F)cc3)C(=O)N(C)CC(=O)N[C@@H](CCc3cc(C)c(Cl)c(C)c3)C(=O)N2C1 [PP1821]	A (a compound having 10 or more and less than 20 is denoted as A)	A (a compound having 10 or more and less than 20 is denoted as A)
CC[C@H](C)[C@@H]1NC(=O)[C@H](CC)N(C)C(=O)C[C@@H](C(=O)N(C)C)N(C)C(=O)[C@H](C2CCCC2)N(C)C(=O)C2(CCC2)NC(=O)[C@@H]2CCCN2C(=O)[C@H](CCc2cc(C)c(Cl)c(C)c2)NC(=O)CN(C)C(=O)[C@H](Cc2ccc(C(F)(F)F)cc2)N2CC/C=C\C[C@@H](C2=O)N(C)C(=O)CN(C)C1=O [PP1822]	A (a compound having 10 or more and less than 20 is denoted as A)	B (a compound having 3 or more and less than 10 is denoted as B)
CCO[C@@H]1C[C@H]2C(=O)NC3(CCCC3)C(=O)N(C)[C@@H](C3CCCC3)C(=O)N(C)[C@H](C(=O)N(C)C)CC(=O)N(C)[C@@H](CC)C(=O)N[C@@H]([C@@H](C)CC)C(=O)N(C)CC(=O)N(C)[C@H]3C/C=C\CCN(C3=O)[C@@H](Cc3ccc(C(F)(F)F)cc3)C(=O)N(C)CC(=O)N[C@@H](CCc3cc(C)c(Cl)c(C)c3)C(=O)N2C1 [PP1823]	A (a compound having 10 or more and less than 20 is denoted as A)	A (a compound having 10 or more and less than 20 is denoted as A)
